According to US10647747B2, “Cyclosporin derivatives and uses thereof” (S&T Global Inc., priority 2010, dated 2020):
Read-outs that look alike come from different tables or passages of the source. *1 amine or outer side, *2 acyl side, *3 side chain or, on linkers, in order; H or OH if unused. Where a SMILES comes first, the peptide text is derived from it. [ ]: non-standard residue; d: D form. MeBmt = C/C=C/C[C@@H](C)[C@@H](O)[C@H](NC)C(=O)O; X8 = CCN(CC)CCS[C@@H](C(=O)[*:2])N(C)[*:1]; X3 = CC=CCC(C)C(O)C(C(=O)[*:2])N(C)[*:1]; X9 = C=CCOC(C)(C)CC(C(=O)[*:2])N(C)[*:1]; X7 = CN(C(SCCCN1CCOCC1)C(=O)[*:2])[*:1]; NMeL = CN[CH](CC(C)C)C(=O)O; NMeV = CN[CH](C(=O)O)C(C)C; Abu = CC[CH](N)C(=O)O

Test system: HCV replicon in cell line ET (luc-ubi-neo/ET), Huh7 human hepatoma
Assay: HCV subgenomic replicon assay, luciferase end point
Format: cell-based
[1] = HCV subgenomic replicon, cell line ET (luc-ubi-neo/ET) Huh7, luciferase end point, read-out: Antiviral activity EC50
[2] = Table 13, HCV replicon luciferase, read-out: Antiviral activity EC50
[3] = Table 12, HCV replicon luciferase, read-out: Antiviral activity EC50
[4] = Hepatitis C virus, Huh-7, Table 14, HCV replicon luciferase, read-out: Antiviral activity EC50
[5] = Table 16, HCV replicon luciferase, read-out: Antiviral activity EC50
[6] = Hepatitis C virus, Huh-7, HCV subgenomic replicon, cell line ET (luc-ubi-neo/ET) Huh7, luciferase end point, read-out: Antiviral activity EC50

## CC=CCC(C)C(O)C1C(=O)NC(CC)C(=O)N(C)C(CSCCN(CC)CC(C)(C)C)C(=O)N(C)C(CC(C)(C)O)C(=O)NC(C(C)C)C(=O)N(C)C(CC(C)C)C(=O)NC(C)C(=O)NC(C)C(=O)N(C)C(CC(C)C)C(=O)N(C)C(CC(C)C)C(=O)N(C)C(C(C)C)C(=O)N1C (centres unmarked)
[1]
  EC50: 60 nM

## CC=CCC(C)C(O)C1C(=O)NC(CC)C(=O)N(C)C(SCCCN2CCOCC2)C(=O)N(C)C(CC(C)(C)O)C(=O)NC(C(C)C)C(=O)N(C)C(CC(C)C)C(=O)NC(C)C(=O)NC(C)C(=O)N(C)C(CC(C)C)C(=O)N(C)C(CC(C)C)C(=O)N(C)C(C(C)C)C(=O)N1C [[(S)-3-(N-Morpholino)propylthio-Sar]-3-[(γ-hydroxy)-N-MeLeu]-4-cyclosporin]
[2]
  EC50: 50 nM

## CC=CCC(C)C(O)C1C(=O)NC(CC)C(=O)N(C)C(COCCN(CC)CC)C(=O)N(C)C(CC(C)(C)O)C(=O)NC(C(C)C)C(=O)N(C)C(CC(C)C)C(=O)NC(C)C(=O)NC(C)C(=O)N(C)C(CC(C)C)C(=O)N(C)C(CC(C)C)C(=O)N(C)C(C(C)C)C(=O)N1C (centres unmarked)
[1]
  EC50: 120 nM

## CC=CCC(C)C(O)C1C(=O)NC(CC)C(=O)N(C)C(SCCN(CC(C)C)C(C)C)C(=O)N(C)C(CC(C)C)C(=O)NC(C(C)C)C(=O)N(C)C(CC(C)C)C(=O)NC(C)C(=O)NC(C)C(=O)N(C)C(CC(C)C)C(=O)N(C)C(CC(C)C)C(=O)N(C)C(C(C)C)C(=O)N1C [(S)-2-(N-iso-Butyl-N-iso-propylamino)ethylthio-Sar]-3-cyclosporin]
[3]
  EC50: 480 nM

## C/C=C/C[C@@H](C)[C@@H](O)[C@H]1C(=O)N[C@@H](CC)C(=O)N(C)CC(=O)N(C)[C@@H]([C@@H](C)CC)C(=O)N[C@@H](C(C)C)C(=O)N(C)[C@@H](CC(C)C)C(=O)N[C@@H](C)C(=O)N[C@H](C)C(=O)N(C)[C@@H](CC(C)C)C(=O)N(C)[C@@H](CC(C)C)C(=O)N(C)[C@@H](C(C)C)C(=O)N1C [[N-MeIle]-4-cyclosporin (SDZ-NIM-811), N-MeIle-4-Cyclosporin, reference compound]
Hepatitis C virus, Huh-7, read-out: Antiviral activity EC50, Table 12, HCV replicon luciferase
  EC50: 150 nM

## CC=CCC(C)C(O)C1C(=O)NC(CC)C(=O)N(C)C(SCCCN2CCOCC2)C(=O)N(C)C(C(C)C)C(=O)NC(C(C)C)C(=O)N(C)C(CC(C)C)C(=O)NC(C)C(=O)NC(C)C(=O)N(C)C(CC(C)C)C(=O)N(C)C(CC(C)C)C(=O)N(C)C(C(C)C)C(=O)N1C [[(S)-(3-(N-Morpholino)propylthio-Sar]-3-[N-MeVal]-4-cyclosporin] (cyclo([X3][Abu][X7][NMeV]V[NMeL]AA[NMeL][NMeL][NMeV]); configuration not given here)
[1]
  EC50: 110 nM

## C/C=C/C[C@@H](C)[C@@H](O)[C@H]1C(=O)N[C@@H](CC)C(=O)N(C)[C@H](COCCN(C)C)C(=O)N(C)[C@@H](CC(C)(C)OC)C(=O)N[C@@H](C(C)C)C(=O)N(C)[C@@H](CC(C)C)C(=O)N[C@@H](C)C(=O)N[C@H](C)C(=O)N(C)[C@@H](CC(C)C)C(=O)N(C)[C@@H](CC(C)C)C(=O)N(C)[C@@H](C(C)C)C(=O)N1C
[1]
  EC50: 150 nM

## C/C=C/C[C@@H](C)[C@@H](O)[C@H]1C(=O)N[C@@H](CC)C(=O)N(C)[C@H](CSCCN(C)C(C)C)C(=O)N(C)[C@@H](CC(C)(C)O)C(=O)N[C@@H](C(C)C)C(=O)N(C)[C@@H](CC(C)C)C(=O)N[C@@H](C)C(=O)N[C@H](C)C(=O)N(C)[C@@H](CC(C)C)C(=O)N(C)[C@@H](CC(C)C)C(=O)N(C)[C@@H](C(C)C)C(=O)N1C
[4]
  EC50: 40 nM

## C/C=C/C[C@@H](C)[C@@H](O)[C@H]1C(=O)N[C@@H](CC)C(=O)N(C)[C@H](CSCCN2CCN(CC)CC2)C(=O)N(C)[C@@H](CC(C)(C)O)C(=O)N[C@@H](C(C)C)C(=O)N(C)[C@@H](CC(C)C)C(=O)N[C@@H](C)C(=O)N[C@H](C)C(=O)N(C)[C@@H](CC(C)C)C(=O)N(C)[C@@H](CC(C)C)C(=O)N(C)[C@@H](C(C)C)C(=O)N1C
[5]
  EC50: 60 nM

## CC=CCC(C)C(O)C1C(=O)NC(CC)C(=O)N(C)C(COCCCN(CC)CC)C(=O)N(C)C(CC(C)(C)O)C(=O)NC(C(C)C)C(=O)N(C)C(CC(C)C)C(=O)NC(C)C(=O)NC(C)C(=O)N(C)C(CC(C)C)C(=O)N(C)C(CC(C)C)C(=O)N(C)C(C(C)C)C(=O)N1C (centres unmarked)
[1]
  EC50: 180 nM

## C/C=C/C[C@@H](C)[C@@H](O)[C@H]1C(=O)N[C@@H](CC)C(=O)N(C)[C@@H](CSCCN(CC)CC)C(=O)N(C)[C@@H](CC(C)(C)O)C(=O)N[C@@H](C(C)C)C(=O)N(C)[C@@H](CC(C)C)C(=O)N[C@@H](C)C(=O)N[C@H](C)C(=O)N(C)[C@@H](CC(C)C)C(=O)N(C)[C@@H](CC(C)C)C(=O)N(C)[C@@H](C(C)C)C(=O)N1C (single isomer, unassigned; isomer a)
[2]
  EC50: 2120 nM

## C/C=C/C[C@@H](C)[C@@H](O)[C@H]1C(=O)N[C@@H](CC)C(=O)N(C)[C@H](C)C(=O)N(CC)[C@@H](C(C)C)C(=O)N[C@@H](C(C)C)C(=O)N(C)[C@@H](CC(C)C)C(=O)N[C@@H](C)C(=O)N[C@H](C)C(=O)N(C)[C@@H](CC(C)C)C(=O)N(C)[C@@H](CC(C)C)C(=O)N(C)[C@@H](C(C)C)C(=O)N1C [[D-N-MeAla]-3-[N-EtVal]-4-cyclosporin, reference compound]
[6]
  EC50: 70 nM
Hepatitis C virus, Huh-7, Table 16, HCV replicon luciferase, read-out: Antiviral activity EC50
  EC50: 50 nM

## (R)-2-(N-iso-Butyl-N-iso-propylamino)ethylthio-Sar]-3-cyclosporin
[3]
  EC50: 4650 nM

## C/C=C/C[C@@H](C)[C@@H](O)[C@H]1C(=O)N[C@@H](CC)C(=O)N(C)[C@H](CSCCCN(C)C)C(=O)N(C)[C@@H](CC(C)(C)O)C(=O)N[C@@H](C(C)C)C(=O)N(C)[C@@H](CC(C)C)C(=O)N[C@@H](C)C(=O)N[C@H](C)C(=O)N(C)[C@@H](CC(C)C)C(=O)N(C)[C@@H](CC(C)C)C(=O)N(C)[C@@H](C(C)C)C(=O)N1C
[1]
  EC50: 110 nM

## C/C=C/C[C@@H](C)[C@@H](O)[C@H]1C(=O)N[C@@H](CC)C(=O)N(C)[C@H](COCCN(C)C)C(=O)N(C)[C@@H](CC(C)C)C(=O)N[C@@H](C(C)C)C(=O)N(C)[C@@H](CC(C)C)C(=O)N[C@@H](C)C(=O)N[C@H](C)C(=O)N(C)[C@@H](CC(C)C)C(=O)N(C)[C@@H](CC(C)C)C(=O)N(C)[C@@H](C(C)C)C(=O)N1C [[(R)-(2-(N,N-Dimethylamino)ethoxy)methyl-Sar]-3-cyclosporin]
[6]
  EC50: 150 nM

## CC=CCC(C)C(O)C1C(=O)NC(CC)C(=O)N(C)C(CSCCCN2CCN(C(C)C)CC2)C(=O)N(C)C(CC(C)(C)O)C(=O)NC(C(C)C)C(=O)N(C)C(CC(C)C)C(=O)NC(C)C(=O)NC(C)C(=O)N(C)C(CC(C)C)C(=O)N(C)C(CC(C)C)C(=O)N(C)C(C(C)C)C(=O)N1C (centres unmarked)
[5]
  EC50: 50 nM

## CC=CCC(C)C(O)C1C(=O)NC(CC)C(=O)N(C)C(COCCN2CCCCC2)C(=O)N(C)C(CC(C)(C)O)C(=O)NC(C(C)C)C(=O)N(C)C(CC(C)C)C(=O)NC(C)C(=O)NC(C)C(=O)N(C)C(CC(C)C)C(=O)N(C)C(CC(C)C)C(=O)N(C)C(C(C)C)C(=O)N1C [[(R)-(2-(N-Piperidinyl)ethoxy)methyl-Sar]-3-[(γ-hydroxy)-N-MeLeu]-4-cyclosporin]
[1]
  EC50: 140 nM

## C/C=C/C[C@@H](C)[C@@H](O)[C@H]1C(=O)N[C@@H](CC)C(=O)N(C)[C@@H](SCCN(CC)CC)C(=O)N(C)[C@@H](C(C)C)C(=O)N[C@@H](C(C)C)C(=O)N(C)[C@@H](CC(C)C)C(=O)N[C@@H](C)C(=O)N[C@H](C)C(=O)N(C)[C@@H](CC(C)C)C(=O)N(C)[C@@H](CC(C)C)C(=O)N(C)[C@@H](C(C)C)C(=O)N1C [(S)-2-(N,N-Diethylamino)ethylthio-Sar]-3-[N-MeVal]-4-cyclosporin] (cyclo(A[dA][NMeL][NMeL][NMeV][MeBmt][Abu][X8][NMeV]V[NMeL]))
[3]
  EC50: 40 nM

## CC=CCC(C)C(O)C1C(=O)NC(CC)C(=O)N(C)C(CSCCN2CCCC2)C(=O)N(C)C(CC(C)(C)OC)C(=O)NC(C(C)C)C(=O)N(C)C(CC(C)C)C(=O)NC(C)C(=O)NC(C)C(=O)N(C)C(CC(C)C)C(=O)N(C)C(CC(C)C)C(=O)N(C)C(C(C)C)C(=O)N1C (centres unmarked)
[1]
  EC50: 90 nM

## C=CCOC(C)(C)CC1C(=O)NC(C(C)C)C(=O)N(C)C(CC(C)C)C(=O)NC(C)C(=O)NC(C)C(=O)N(C)C(CC(C)C)C(=O)N(C)C(CC(C)C)C(=O)N(C)C(C(C)C)C(=O)N(C)C(C(O)C(C)CC=CC)C(=O)NC(CC)C(=O)N(C)C(SCCCN2CCOCC2)C(=O)N1C [[(S)-3-(N-Morpholino)propylthio-Sar]-3-[(γ-allyloxy)-N-MeLeu]-4-cyclosporin] (cyclo([X3][Abu][X7][X9]V[NMeL]AA[NMeL][NMeL][NMeV]); configuration not given here)
[2]
  EC50: 150 nM

## C/C=C/C[C@@H](C)[C@@H](O)[C@H]1C(=O)N[C@@H](CC)C(=O)N(C)[C@H](COCCCN2CCOCC2)C(=O)N(C)[C@@H](CC(C)(C)O)C(=O)N[C@@H](C(C)C)C(=O)N(C)[C@@H](CC(C)C)C(=O)N[C@@H](C)C(=O)N[C@H](C)C(=O)N(C)[C@@H](CC(C)C)C(=O)N(C)[C@@H](CC(C)C)C(=O)N(C)[C@@H](C(C)C)C(=O)N1C [[(R)-(3-(N-Morpholino)propoxy)methyl-Sar]-3-[(γ-hydroxy)-N-MeLeu]-4-cyclosporin]
[1]
  EC50: 90 nM

## C/C=C/C[C@@H](C)[C@@H](O)[C@H]1C(=O)N[C@@H](CC)C(=O)N(C)[C@H](CSCCN(CC)CC)C(=O)N(C)[C@@H](CC(C)(C)O)C(=O)N[C@@H](C(C)C)C(=O)N(C)[C@@H](CC(C)C)C(=O)N[C@@H](C)C(=O)N[C@H](C)C(=O)N(C)[C@@H](CC(C)C)C(=O)N(C)[C@@H](CC(C)C)C(=O)N(C)[C@@H](C(C)C)C(=O)N1C (single isomer, unassigned; isomer b)
[1]
  EC50: 90 nM
[2]
  EC50: 30 nM

## C/C=C/C[C@@H](C)[C@@H](O)[C@H]1C(=O)N[C@@H](CC)C(=O)N(C)[C@H](COCCN(CC)CC)C(=O)N(C)[C@@H](CC(C)(C)OC)C(=O)N[C@@H](C(C)C)C(=O)N(C)[C@@H](CC(C)C)C(=O)N[C@@H](C)C(=O)N[C@H](C)C(=O)N(C)[C@@H](CC(C)C)C(=O)N(C)[C@@H](CC(C)C)C(=O)N(C)[C@@H](C(C)C)C(=O)N1C
[4]
  EC50: 20 nM

## CC=CCC(C)C(O)C1C(=O)NC(CC)C(=O)N(C)C(CSCCCN(C)C)C(=O)N(C)C(CC(C)(C)OC)C(=O)NC(C(C)C)C(=O)N(C)C(CC(C)C)C(=O)NC(C)C(=O)NC(C)C(=O)N(C)C(CC(C)C)C(=O)N(C)C(CC(C)C)C(=O)N(C)C(C(C)C)C(=O)N1C (centres unmarked)
[1]
  EC50: 90 nM
